Data on six compounds can be found in patent US20090124619A1, “NOVEL COMPOUNDS” (priority 2005, published 2009).

A word on the EC50: it is the concentration at which the effect is half-maximal. A lower EC50 goes with higher potency in that assay.

T1 sequence (A0A8F4X677 1-871): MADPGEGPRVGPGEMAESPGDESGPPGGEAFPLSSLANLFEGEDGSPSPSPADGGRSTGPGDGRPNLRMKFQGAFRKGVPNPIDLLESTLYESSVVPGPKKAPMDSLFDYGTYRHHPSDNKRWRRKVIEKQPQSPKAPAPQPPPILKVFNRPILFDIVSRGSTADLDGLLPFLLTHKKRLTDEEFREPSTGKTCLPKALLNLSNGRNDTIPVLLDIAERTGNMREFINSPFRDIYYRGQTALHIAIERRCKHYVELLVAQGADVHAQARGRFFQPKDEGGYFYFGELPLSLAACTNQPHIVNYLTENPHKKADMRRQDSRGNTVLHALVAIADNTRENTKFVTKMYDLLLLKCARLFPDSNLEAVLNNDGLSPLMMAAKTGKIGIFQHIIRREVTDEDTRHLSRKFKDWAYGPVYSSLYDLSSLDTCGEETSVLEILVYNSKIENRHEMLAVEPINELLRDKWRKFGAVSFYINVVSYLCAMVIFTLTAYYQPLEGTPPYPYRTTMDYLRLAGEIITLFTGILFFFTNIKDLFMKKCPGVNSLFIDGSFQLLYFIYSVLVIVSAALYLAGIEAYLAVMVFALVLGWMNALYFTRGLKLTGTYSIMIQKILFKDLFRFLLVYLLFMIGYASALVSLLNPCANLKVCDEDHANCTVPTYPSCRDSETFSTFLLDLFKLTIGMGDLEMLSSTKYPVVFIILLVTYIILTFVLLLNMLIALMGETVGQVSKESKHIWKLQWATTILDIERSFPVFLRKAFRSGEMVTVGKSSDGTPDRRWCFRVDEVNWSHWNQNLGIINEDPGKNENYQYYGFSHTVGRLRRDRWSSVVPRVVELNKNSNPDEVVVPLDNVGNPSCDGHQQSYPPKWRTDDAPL

One assay concerns the target T1, TRPV4 channel receptors (Bos taurus, UniProt A0A8F4X677).
T1 construct: obtained using this method in bovine articular chondrocytes; endogenous in cells; host or cells: bovine articular chondrocytes (primary)
The assay can be described thus: Ca2+ influx, Fura-2 fluorescence on FlexStation in bovine articular chondrocytes. Format: cell-based.
Conditions: not given
From the text:
Ca^2+ influx mediated through TRPV4 channel receptors can be measured using articular chondrocytes from such species as, but not limited to, human, rat, canine, rabbit, monkey, and bovine, using standard techniques in the art such as, but not limited to, Fura-2 (Invitrogen/Molecular Probes, Eugene, Oreg.) fluorescence using a FlexStation (manufactured by Molecular Devices, Sunnyvale, Calif.). Table 1 lists biological data for several representative compounds obtained using this method in bovine articular chondrocytes.
(§1) All exemplary compounds of the present invention were assessed using at least one of the biological assays presented above. Compounds presented in the Examples had EC50 values of about 0.01 μM to 30 μM as measured by Flex Station using bovine articular chondrocytes and pEC50 values between about 5.0 to about 7.5 as measured by FLIPR assay using TRPV4 expressing HEK cells.
Consider `CC[C@H](C)[C@H](NC(=O)c1cc2ccccc2s1)C(=O)NCC1CN(S(=O)(=O)c2ccccc2C#N)CCO1` (stereo partly drawn) [Example 18, N-((1S,2S)-1-{[({4-[(2-cyanophenyl)sulfonyl]-2-morpholinyl}methyl)amino]carbonyl}-2-methylbutyl)-1-benzothiophene-2-carboxamide], for which the concentration giving a half-maximal response (EC50) is greater than 0.9 µM.
The same measure, in the same setting: with `CC(C)C[C@H](NC(=O)c1cc2ccccc2s1)C(=O)NC[C@@H]1CN(S(=O)(=O)c2ccccc2C#N)CCO1` [Example 21, N-((1S)-1-{[({(2R)-4-[(2-cyanophenyl)sulfonyl]-2-morpholinyl}methyl)amino]carbonyl}-3-methylbutyl)-1-benzothiophene-2-carboxamide] the figure was 0.001 to 0.16 µM; with `CC(C)C[C@H](NC(=O)c1cc2ccccc2s1)C(=O)NC[C@H]1CN(S(=O)(=O)c2ccccc2C#N)CCO1` [Example 24, N-((1S)-1-{[({(2S)-4-[(2-cyanophenyl)sulfonyl]-2-morpholinyl}methyl)amino]carbonyl}-3-methylbutyl)-1-benzothiophene-2-carboxamide], 0.16 to 0.9 µM.

For the next assay, the target named is T2, TRPV4 (Homo sapiens, UniProt Q9HBA0).
T2 construct: expressed in transfected cells; host or cells: HEK cells
T2 sequence (Q9HBA0 whole entry): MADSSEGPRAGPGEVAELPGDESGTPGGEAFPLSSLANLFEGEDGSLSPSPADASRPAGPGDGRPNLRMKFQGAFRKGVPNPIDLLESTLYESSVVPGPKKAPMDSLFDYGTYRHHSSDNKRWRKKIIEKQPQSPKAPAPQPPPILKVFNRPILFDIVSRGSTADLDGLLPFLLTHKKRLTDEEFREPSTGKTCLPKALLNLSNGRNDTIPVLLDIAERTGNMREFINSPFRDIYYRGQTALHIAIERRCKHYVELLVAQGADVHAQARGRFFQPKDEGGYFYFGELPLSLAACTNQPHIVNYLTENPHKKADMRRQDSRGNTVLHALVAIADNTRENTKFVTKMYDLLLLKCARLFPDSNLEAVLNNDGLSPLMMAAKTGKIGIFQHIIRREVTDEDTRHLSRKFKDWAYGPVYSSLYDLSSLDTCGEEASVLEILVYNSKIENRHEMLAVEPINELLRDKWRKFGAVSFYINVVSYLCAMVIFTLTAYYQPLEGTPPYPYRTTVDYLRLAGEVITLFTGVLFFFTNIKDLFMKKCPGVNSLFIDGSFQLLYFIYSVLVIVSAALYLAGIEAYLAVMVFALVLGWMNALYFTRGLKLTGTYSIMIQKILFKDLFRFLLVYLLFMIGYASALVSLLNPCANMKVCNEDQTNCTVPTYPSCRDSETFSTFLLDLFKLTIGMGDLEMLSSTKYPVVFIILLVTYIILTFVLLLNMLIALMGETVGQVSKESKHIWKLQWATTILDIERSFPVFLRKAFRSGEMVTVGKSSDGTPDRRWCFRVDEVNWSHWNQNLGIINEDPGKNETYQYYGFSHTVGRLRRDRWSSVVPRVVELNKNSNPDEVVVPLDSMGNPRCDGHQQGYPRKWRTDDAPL
Kind of assay: FLIPR assay using TRPV4 expressing HEK cells. The assay is classed as cell-based. The settings on record: FLIPR method; pEC50 = −log10(EC50 μM).
Source text: Other techniques used to measure TRPV4 channel receptor activation in chondrocytes include, but are not limited to: FLIPR assay, measuring a compound's capability to reduce the amount of ADAMTSs produced and/or released in response to a catabolic stimulus by a cell comprising a TRPV4 channel receptor; measuring a compound's capability to reduce the amount of MMPs produced and/or released in response to a catabolic stimulus by a cell comprising a TRPV4 channel receptor; measuring a compound's capability to effect the amount of nitric oxide (NO) produced in response to a catabolic stimulus by a cell comprising a TRPV4 channel receptor; and measuring a compound's capability to attenuate the inhibition of matrix synthesis in response to a catabolic stimulus by a cell comprising a TRPV4 channel receptor.
as §1
The compound `CC(C)C[C@H](NC(=O)c1cc2ccccc2s1)C(=O)NCC1CN(S(=O)(=O)c2ccc(Cl)cc2Cl)CCO1` (stereo partly drawn) [Example 14, N-((1S)-1-{[({4-[(2,4-dichlorophenyl)sulfonyl]-2-morpholinyl}methyl)amino]carbonyl}-3-methylbutyl)-1-benzothiophene-2-carboxamide] had a half-maximal effective concentration (EC50) of no more than 0.1 µM.
Same read-out and setting: with `CC(C)[C@H](NC(=O)CCC1CCCC1)C(=O)NCC1CN(S(=O)(=O)c2ccccc2C#N)CCO1` (stereo partly drawn) [Example 44, N1-({4-[(2-cyanophenyl)sulfonyl]-2-morpholinyl}methyl)-N2-(3-cyclopentylpropanoyl)-L-valinamide] the figure was 0.1 to 1.12 µM; with `O=C(CCC1CCCC1)N[C@H](C(=O)NCC1CN(S(=O)(=O)c2ccc(Cl)cc2Cl)CCO1)c1ccccc1` (stereo partly drawn) [Example 60, 3-cyclopentyl-N-{(1S)-2-[({4-[(2,4-dichlorophenyl)sulfonyl]-2-morpholinyl}methyl)amino]-2-oxo-1-phenylethyl}propanamide], 1.12 to 10 µM.
